Measurements from ChEMBL document CHEMBL3885861, “Open TG-GATES”.

Organism: Rattus norvegicus
Experiment: Open TG-GATES - Regimen: Daily Repeat
Format: toxicity, organism-based, Sprague-Dawley
Set-up: regimen Daily Repeat, gender Male, age 6 weeks
Details: in vivo, po, route gavage; for APTT / Bas / Eos / Fbg / Hb / Ht / Lym / MCH / MCHC / MCV / Mono / Neu / PT / Plat / RBC / Ret / WBC: tissue Blood; for LIVER: tissue Liver; for A/G / ALP / ALT / AST / BUN / CRE / Ca / Cl / DBIL / GLC / IP / K / LDH / Na / PL / RALB / TBIL / TC / TG / TP / gamma-GTP: tissue Plasma
[1] = 20 mg/kg, 72 h, dose level Middle, time 3 day
[2] = 20 mg/kg, […], dose level Middle, time 7 day
[3] = 20 mg/kg, […], dose level Middle, time 14 day
[4] = 20 mg/kg, […], dose level Middle, time 28 day
[5] = 60 mg/kg, 72 h, dose level High, time 3 day
[6] = 60 mg/kg, […], dose level High, time 7 day
[7] = 60 mg/kg, […], dose level High, time 14 day
[8] = 60 mg/kg, […], dose level High, time 28 day

O=[N+]([O-])c1ccc(O)c([N+](=O)[O-])c1 [2,4-DINITROPHENOL]
TERMINAL_BW [1]: 243.1 g
APTT [1]: 15.4 s
Bas [1]: 0%
Eos [1]: 1.2%
Fbg [1]: 283.4 mg/dL
Hb [1]: 13.6 g/dL
Ht [1]: 40.4%
Lym [1]: 77%
MCH [1]: 22.4 pg
MCHC [1]: 33.7%
MCV [1]: 66.4 fL
Mono [1]: 5%
Neu [1]: 17%
PT [1]: 11.4 s
Plat [1]: 131.6 x10_4/uL
RBC [1]: 609.2 x10_4/ul
Ret [1]: 7.3%
WBC [1]: 124.2 x10_2/uL
LIVER [1]: 12.1 g
A/G [1]: 2.4
ALP [1]: 1368.6 IU/L
ALT [1]: 36.6 IU/L
AST [1]: 61.6 IU/L
BUN [1]: 15.2 mg/dL
CRE [1]: 0.4 mg/dL
Ca [1]: 11.4 mg/dL
Cl [1]: 104.2 meq/L
DBIL [1]: 0.01 mg/dL
GLC [1]: 182.6 mg/dL
IP [1]: 7.3 mg/dL
K [1]: 4.8 meq/L
LDH [1]: 128.4 IU/L
Na [1]: 138.2 meq/L
PL [1]: 165.4 mg/dL
RALB [1]: 3.9 g/dL
TBIL [1]: 0.022 mg/dL
TC [1]: 93 mg/dL
TG [1]: 134.6 mg/dL
TP [1]: 5.6 g/dL
gamma-GTP [1]: 0.2 IU/L
TERMINAL_BW [2]: 277.1 g
TERMINAL_BW [3]: 351 g
TERMINAL_BW [4]: 428.8 g
APTT [2]: 16.2 s
Bas [2]: 0%
Eos [2]: 0.8%
Fbg [2]: 259.6 mg/dL
Hb [2]: 13.7 g/dL
Ht [2]: 40.8%
Lym [2]: 71.4%
MCH [2]: 21.3 pg
MCHC [2]: 33.6%
MCV [2]: 63.3 fL
Mono [2]: 9%
Neu [2]: 19%
PT [2]: 11.8 s
Plat [2]: 128 x10_4/uL
RBC [2]: 644.2 x10_4/ul
Ret [2]: 5.5%
WBC [2]: 102 x10_2/uL
APTT [3]: 16.3 s
Bas [3]: 0%
Eos [3]: 0.6%
Fbg [3]: 267 mg/dL
Hb [3]: 13.9 g/dL
Ht [3]: 41.3%
Lym [3]: 77.6%
MCH [3]: 21 pg
MCHC [3]: 33.8%
MCV [3]: 62.2 fL
Mono [3]: 6%
Neu [3]: 15.8%
PT [3]: 11.8 s
Plat [3]: 128 x10_4/uL
RBC [3]: 663.8 x10_4/ul
Ret [3]: 4.4%
WBC [3]: 125.8 x10_2/uL
APTT [4]: 17.1 s
Bas [4]: 0%
Eos [4]: 1%
Fbg [4]: 281.8 mg/dL
Hb [4]: 14.9 g/dL
Ht [4]: 44%
Lym [4]: 82.4%
MCH [4]: 20 pg
MCHC [4]: 33.8%
MCV [4]: 59.1 fL
Mono [4]: 5%
Neu [4]: 11.6%
PT [4]: 12 s
Plat [4]: 122 x10_4/uL
RBC [4]: 744.2 x10_4/ul
Ret [4]: 2.6%
WBC [4]: 118.2 x10_2/uL
LIVER [2]: 13.6 g
LIVER [3]: 17.5 g
LIVER [4]: 19.1 g
A/G [2]: 2.3
ALP [2]: 1592.8 IU/L
ALT [2]: 33.4 IU/L
AST [2]: 63 IU/L
BUN [2]: 18.4 mg/dL
CRE [2]: 0.4 mg/dL
Ca [2]: 11.4 mg/dL
Cl [2]: 105.4 meq/L
DBIL [2]: 0.012 mg/dL
GLC [2]: 182 mg/dL
IP [2]: 7.2 mg/dL
K [2]: 4.8 meq/L
LDH [2]: 111.6 IU/L
Na [2]: 139.4 meq/L
PL [2]: 149.6 mg/dL
RALB [2]: 3.9 g/dL
TBIL [2]: 0.02 mg/dL
TC [2]: 77.4 mg/dL
TG [2]: 148.2 mg/dL
TP [2]: 5.6 g/dL
gamma-GTP [2]: 0.4 IU/L
A/G [3]: 2.1
ALP [3]: 983.2 IU/L
ALT [3]: 33.4 IU/L
AST [3]: 64.2 IU/L
BUN [3]: 19 mg/dL
CRE [3]: 0.3 mg/dL
Ca [3]: 11.8 mg/dL
Cl [3]: 104.4 meq/L
DBIL [3]: 0.014 mg/dL
GLC [3]: 180.4 mg/dL
IP [3]: 6.9 mg/dL
K [3]: 4.5 meq/L
LDH [3]: 99.8 IU/L
Na [3]: 137 meq/L
PL [3]: 151.2 mg/dL
RALB [3]: 4 g/dL
TBIL [3]: 0.022 mg/dL
TC [3]: 74.2 mg/dL
TG [3]: 190.4 mg/dL
TP [3]: 6 g/dL
gamma-GTP [3]: 0 IU/L
A/G [4]: 1.9
ALP [4]: 871.8 IU/L
ALT [4]: 31.8 IU/L
AST [4]: 63.4 IU/L
BUN [4]: 18.2 mg/dL
CRE [4]: 0.5 mg/dL
Ca [4]: 11.2 mg/dL
Cl [4]: 104.6 meq/L
DBIL [4]: 0.012 mg/dL
GLC [4]: 180.8 mg/dL
IP [4]: 6.6 mg/dL
K [4]: 4.3 meq/L
LDH [4]: 117.2 IU/L
Na [4]: 141 meq/L
PL [4]: 133.4 mg/dL
RALB [4]: 4.1 g/dL
TBIL [4]: 0.016 mg/dL
TC [4]: 67.6 mg/dL
TG [4]: 155.6 mg/dL
TP [4]: 6.2 g/dL
gamma-GTP [4]: 0.4 IU/L
TERMINAL_BW [5]: 245.9 g
APTT [5]: 15.9 s
Bas [5]: 0%
Eos [5]: 1%
Fbg [5]: 275.4 mg/dL
Hb [5]: 13.3 g/dL
Ht [5]: 39.2%
Lym [5]: 74%
MCH [5]: 22 pg
MCHC [5]: 33.9%
MCV [5]: 64.9 fL
Mono [5]: 7%
Neu [5]: 18.4%
PT [5]: 11.7 s
Plat [5]: 139 x10_4/uL
RBC [5]: 604.8 x10_4/ul
Ret [5]: 9.7%
WBC [5]: 124 x10_2/uL
LIVER [5]: 12.8 g
A/G [5]: 2.2
ALP [5]: 1454.2 IU/L
ALT [5]: 31.8 IU/L
AST [5]: 66.2 IU/L
BUN [5]: 17.8 mg/dL
CRE [5]: 0.4 mg/dL
Ca [5]: 11.4 mg/dL
Cl [5]: 104.6 meq/L
DBIL [5]: 0.014 mg/dL
GLC [5]: 169.2 mg/dL
IP [5]: 6.6 mg/dL
K [5]: 5 meq/L
LDH [5]: 98.2 IU/L
Na [5]: 137.8 meq/L
PL [5]: 155.2 mg/dL
RALB [5]: 3.8 g/dL
TBIL [5]: 0.02 mg/dL
TC [5]: 82 mg/dL
TG [5]: 125 mg/dL
TP [5]: 5.6 g/dL
gamma-GTP [5]: 0.2 IU/L
TERMINAL_BW [6]: 262.8 g
TERMINAL_BW [7]: 327.9 g
TERMINAL_BW [8]: 396.2 g
APTT [6]: 16.6 s
Bas [6]: 0%
Eos [6]: 1.4%
Fbg [6]: 263.8 mg/dL
Hb [6]: 14.2 g/dL
Ht [6]: 41.9%
Lym [6]: 78.4%
MCH [6]: 21.5 pg
MCHC [6]: 33.9%
MCV [6]: 63.4 fL
Mono [6]: 6.4%
Neu [6]: 14.6%
PT [6]: 11.9 s
Plat [6]: 128.6 x10_4/uL
RBC [6]: 662.2 x10_4/ul
Ret [6]: 6.1%
WBC [6]: 126.8 x10_2/uL
APTT [7]: 16.3 s
Bas [7]: 0%
Eos [7]: 0.8%
Fbg [7]: 263.8 mg/dL
Hb [7]: 14.3 g/dL
Ht [7]: 42.2%
Lym [7]: 74.8%
MCH [7]: 21.6 pg
MCHC [7]: 33.9%
MCV [7]: 63.5 fL
Mono [7]: 10.4%
Neu [7]: 14.2%
PT [7]: 12.2 s
Plat [7]: 124 x10_4/uL
RBC [7]: 665.2 x10_4/ul
Ret [7]: 4.2%
WBC [7]: 114.6 x10_2/uL
APTT [8]: 16.4 s
Bas [8]: 0%
Eos [8]: 1%
Fbg [8]: 294.4 mg/dL
Hb [8]: 15.6 g/dL
Ht [8]: 46.4%
Lym [8]: 73.4%
MCH [8]: 20.5 pg
MCHC [8]: 33.6%
MCV [8]: 60.9 fL
Mono [8]: 6.6%
Neu [8]: 18.8%
PT [8]: 12 s
Plat [8]: 105.6 x10_4/uL
RBC [8]: 763.2 x10_4/ul
Ret [8]: 2.9%
WBC [8]: 117.4 x10_2/uL
LIVER [6]: 13.7 g
LIVER [7]: 17.8 g
LIVER [8]: 21.6 g
A/G [6]: 2.3
ALP [6]: 1317.4 IU/L
ALT [6]: 39.4 IU/L
AST [6]: 72 IU/L
BUN [6]: 17 mg/dL
CRE [6]: 0.3 mg/dL
Ca [6]: 11.5 mg/dL
Cl [6]: 104.2 meq/L
DBIL [6]: 0.014 mg/dL
GLC [6]: 167.8 mg/dL
IP [6]: 7.2 mg/dL
K [6]: 4.8 meq/L
LDH [6]: 116.8 IU/L
Na [6]: 140.2 meq/L
PL [6]: 150.4 mg/dL
RALB [6]: 4 g/dL
TBIL [6]: 0.016 mg/dL
TC [6]: 77.6 mg/dL
TG [6]: 115 mg/dL
TP [6]: 5.7 g/dL
gamma-GTP [6]: 0.8 IU/L
A/G [7]: 2.2
ALP [7]: 1140.6 IU/L
ALT [7]: 38 IU/L
AST [7]: 79.2 IU/L
BUN [7]: 18.6 mg/dL
CRE [7]: 0.4 mg/dL
Ca [7]: 11.8 mg/dL
Cl [7]: 104.6 meq/L
DBIL [7]: 0.014 mg/dL
GLC [7]: 167.8 mg/dL
IP [7]: 6 mg/dL
K [7]: 4.1 meq/L
LDH [7]: 134.2 IU/L
Na [7]: 138 meq/L
PL [7]: 151.2 mg/dL
RALB [7]: 4.1 g/dL
TBIL [7]: 0.02 mg/dL
TC [7]: 67.4 mg/dL
TG [7]: 208.6 mg/dL
TP [7]: 6 g/dL
gamma-GTP [7]: 0 IU/L
A/G [8]: 1.9
ALP [8]: 925 IU/L
ALT [8]: 45.6 IU/L
AST [8]: 93.8 IU/L
BUN [8]: 20.8 mg/dL
CRE [8]: 0.5 mg/dL
Ca [8]: 11.4 mg/dL
Cl [8]: 105 meq/L
DBIL [8]: 0.018 mg/dL
GLC [8]: 167.6 mg/dL
IP [8]: 5 mg/dL
K [8]: 4.2 meq/L
LDH [8]: 160 IU/L
Na [8]: 140.2 meq/L
PL [8]: 144.4 mg/dL
RALB [8]: 4.1 g/dL
TBIL [8]: 0.026 mg/dL
TC [8]: 69 mg/dL
TG [8]: 177.8 mg/dL
TP [8]: 6.3 g/dL
gamma-GTP [8]: 0.6 IU/L
